Laboratory results from patent US8541418B2, “Inhibitors of polo-like kinase” (Elan Pharmaceutical, Inc., priority 2009, dated 2013).
Like-named read-outs stand apart in the source and are kept apart here.

Assays:
Type in all cases: biochemical
[1] = target: PLK3 (Homo sapiens, UniProt Q9H4B4); experiment: PLK TR-FRET peptide assay, PLK3
[2] = target: PLK2 (Homo sapiens, UniProt Q9NYY3); experiment: PLK TR-FRET peptide assay, PLK2; details: read-out: Plk2 IC50
[3] = target: PLK1 (Homo sapiens, UniProt P53350); experiment: PLK TR-FRET peptide assay, PLK1
Sequence of PLK1 (P53350 whole entry): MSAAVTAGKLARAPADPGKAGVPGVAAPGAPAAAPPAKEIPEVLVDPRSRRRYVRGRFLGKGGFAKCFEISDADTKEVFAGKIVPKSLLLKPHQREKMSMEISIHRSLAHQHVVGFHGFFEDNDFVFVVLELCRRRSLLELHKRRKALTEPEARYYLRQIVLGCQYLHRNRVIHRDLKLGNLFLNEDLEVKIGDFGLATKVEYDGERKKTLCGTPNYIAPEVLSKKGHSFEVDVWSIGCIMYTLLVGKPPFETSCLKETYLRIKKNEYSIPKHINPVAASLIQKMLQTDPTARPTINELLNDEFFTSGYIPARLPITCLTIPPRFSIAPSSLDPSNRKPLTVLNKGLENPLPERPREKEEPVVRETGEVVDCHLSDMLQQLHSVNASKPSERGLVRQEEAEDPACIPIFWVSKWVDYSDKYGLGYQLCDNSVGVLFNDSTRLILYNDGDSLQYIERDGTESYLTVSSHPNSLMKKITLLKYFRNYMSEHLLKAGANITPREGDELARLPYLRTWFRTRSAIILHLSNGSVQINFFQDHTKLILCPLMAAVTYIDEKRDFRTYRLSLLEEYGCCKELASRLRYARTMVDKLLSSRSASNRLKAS

[4] = GST-PLK3, 15 min reaction, read-out: Plk3 IC50
[5] = PLK TR-FRET peptide assay, GST-PLK2, 60 min reaction

Sequence of PLK2 (Q9NYY3 whole entry): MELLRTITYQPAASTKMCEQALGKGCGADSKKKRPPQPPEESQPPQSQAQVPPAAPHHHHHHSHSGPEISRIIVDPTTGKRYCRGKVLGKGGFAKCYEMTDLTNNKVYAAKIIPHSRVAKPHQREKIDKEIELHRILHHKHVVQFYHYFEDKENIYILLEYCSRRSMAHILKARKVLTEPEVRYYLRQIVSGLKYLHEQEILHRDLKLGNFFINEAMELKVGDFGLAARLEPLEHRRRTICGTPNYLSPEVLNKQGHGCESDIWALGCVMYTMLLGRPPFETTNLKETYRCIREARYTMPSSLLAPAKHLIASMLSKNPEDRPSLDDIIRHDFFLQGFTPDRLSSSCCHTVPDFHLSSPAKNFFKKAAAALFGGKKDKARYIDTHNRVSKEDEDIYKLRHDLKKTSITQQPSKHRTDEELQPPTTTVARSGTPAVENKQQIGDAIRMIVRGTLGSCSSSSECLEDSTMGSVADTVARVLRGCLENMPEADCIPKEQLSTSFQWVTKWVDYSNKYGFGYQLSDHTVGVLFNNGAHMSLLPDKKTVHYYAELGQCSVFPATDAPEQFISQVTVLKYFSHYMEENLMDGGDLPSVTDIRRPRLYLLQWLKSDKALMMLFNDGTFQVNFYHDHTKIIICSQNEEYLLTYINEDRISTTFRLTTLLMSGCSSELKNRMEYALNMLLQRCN
Sequence of PLK3 (Q9H4B4 whole entry): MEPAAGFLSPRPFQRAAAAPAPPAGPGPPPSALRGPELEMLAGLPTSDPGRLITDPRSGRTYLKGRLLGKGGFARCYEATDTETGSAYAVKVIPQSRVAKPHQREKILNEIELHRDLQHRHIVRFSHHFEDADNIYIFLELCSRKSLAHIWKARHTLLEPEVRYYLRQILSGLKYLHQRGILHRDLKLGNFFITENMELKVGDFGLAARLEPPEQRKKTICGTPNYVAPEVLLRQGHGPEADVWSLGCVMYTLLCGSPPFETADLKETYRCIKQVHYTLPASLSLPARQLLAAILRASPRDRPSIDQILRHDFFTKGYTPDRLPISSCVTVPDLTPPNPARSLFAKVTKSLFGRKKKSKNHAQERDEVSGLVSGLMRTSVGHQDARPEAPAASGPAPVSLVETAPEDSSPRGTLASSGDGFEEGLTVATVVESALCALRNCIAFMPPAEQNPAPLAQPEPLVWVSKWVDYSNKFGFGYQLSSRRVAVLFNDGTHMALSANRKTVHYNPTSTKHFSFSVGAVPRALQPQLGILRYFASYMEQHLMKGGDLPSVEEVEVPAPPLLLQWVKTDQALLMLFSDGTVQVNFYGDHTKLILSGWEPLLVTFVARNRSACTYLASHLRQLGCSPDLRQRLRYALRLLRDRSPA

Compound | IC50 [1, 4] [µM] | IC50 [2] [µM] | IC50 ([3]; GST-PLK1, 60 min reaction) [µM] | IC50 [2, 5] [µM] | IC50 ([1]; GST-PLK3, read-out: Plk3 IC50) [µM] | IC50 ([2]; PLK TR-FRET peptide assay, GST-PLK2) [µM] | IC50 ([3]; GST-PLK1) [µM]
7-perdeuteroethyl-8-perdeuteroisopropyl-5-trideuteromethyl-2-(3-phenylpyridin-4-yl)-7,8-dihydropteridin-6(5H)-one [Example 146] | < 1 | < 1 | < 1 | – | – | – | –
[2H]C([2H])([2H])N1C(=O)C(C([2H])([2H])C([2H])([2H])[2H])N(C([2H])(C([2H])([2H])[2H])C([2H])([2H])[2H])c2nc(-n3ccnc3-c3ccc(F)cc3)ncc21 (racemic) [Example 162, 7-perdeuteroethyl-2-(2-(4-fluorophenyl)-1H-imidazol-1-yl)-8-perdeuteroisopropyl-5-trideuteromethyl-7,8-dihydropteridin-6(5H)-one] | 1 to 10 | – | 1 to 10 | < 1 | – | – | –
[2H]C([2H])([2H])N1C(=O)C(C([2H])([2H])C([2H])([2H])[2H])N(C([2H])(C([2H])([2H])[2H])C([2H])([2H])[2H])c2nc(-n3ccnc3-c3cc(F)cc(F)c3)ncc21 (racemic) [Example 163, 2-(2-(3,5-difluorophenyl)-1H-imidazol-1-yl)-7-perdeuteroethyl-8-perdeuteroisopropyl-5-trideuteromethyl-7,8-dihydropteridin-6(5H)-one] | 10 to 50 | – | < 1 | < 1 | – | – | –
[2H]C([2H])([2H])N1C(=O)C(C([2H])([2H])C([2H])([2H])[2H])N(C([2H])(C([2H])([2H])[2H])C([2H])([2H])[2H])c2nc(-n3ccnc3-c3cccc(F)c3)ncc21 (racemic) [Example 180, 7-perdeuteroethyl-2-(2-(3-fluorophenyl)-1H-imidazol-1-yl)-8-perdeuteroisopropyl-5-trideuteromethyl-7,8-dihydropteridin-6(5H)-one] | 1 to 10 | – | < 1 | < 1 | – | – | –
CCC12CCCCCN1c1nc(-n3ccnc3-c3ccccc3)ncc1N(C)C2=O (racemic) [Example 205, (+/−) 6a-ethyl-5-methyl-2-(2-phenyl-1H-imidazol-1-yl)-6a,7,8,9,10,11-hexahydroazepino[2,1-h]pteridin-6(5H)-one] | 10 to 50 | – | 10 to 50 | < 1 | – | – | –
CCC12CCCCCN1c1nc(-n3ncnc3-c3ccccc3)ncc1N(C)C2=O (racemic) [Example 216, (+/−) 6a-ethyl-5-methyl-2-(5-phenyl-1H-1,2,4-triazol-1-yl)-6a,7,8,9,10,11-hexahydroazepino[2,1-h]pteridin-6(5H)-one] | 10 to 50 | – | 1 to 10 | 1 to 10 | – | – | –
CCC12CCCCCN1c1nc(-n3ncnc3-c3cccc4ncccc34)ncc1N(C)C2=O (racemic) [Example 217, (+/−) 6a-ethyl-5-methyl-2-(5-(quinolin-5-yl)-1H-1,2,4-triazol-1-yl)-6a,7,8,9,10,11-hexahydroazepino[2,1-h]pteridin-6(5H)-one] | > 50 | – | > 50 | 10 to 50 | – | – | –
CCC12CCCCN1c1nc(-n3ccnc3-c3ccccc3)ncc1N(C)C2=O (racemic) [Example 238, (+/−) 6a-ethyl-5-methyl-2-(2-phenyl-1H-imidazol-1-yl)-7,8,9,10-tetrahydro-5H-pyrido[2,1-h]pteridin-6(6aH)-one] | 10 to 50 | – | 1 to 10 | < 1 | – | – | –
CCC12CCCCN1c1nc(-n3ccnc3-c3cccc(F)c3)ncc1N(C)C2=O (racemic) [Example 239, (+/−) 6a-ethyl-2-(2-(3-fluorophenyl)-1H-imidazol-1-yl)-5-methyl-7,8,9,10-tetrahydro-5H-pyrido[2,1-h]pteridin-6(6aH)-one] | 10 to 50 | – | 1 to 10 | < 1 | – | – | –
CCC12CCCCN1c1nc(-n3ccnc3-c3ccc(F)c(F)c3)ncc1N(C)C2=O (racemic) [Example 240, (+/−) 2-(2-(3,4-difluorophenyl)-1H-imidazol-1-yl)-6a-ethyl-5-methyl-7,8,9,10-tetrahydro-5H-pyrido[2,1-h]pteridin-6(6aH)-one] | 10 to 50 | – | 1 to 10 | < 1 | – | – | –
CCC12CCCCN1c1nc(-n3ccnc3-c3cc(F)cc(F)c3)ncc1N(C)C2=O (racemic) [Example 243, (+/−) 2-(2-(3,5-difluorophenyl)-1H-imidazol-1-yl)-6a-ethyl-5-methyl-7,8,9,10-tetrahydro-5H-pyrido[2,1-h]pteridin-6(6aH)-one] | > 50 | – | 10 to 50 | < 1 | – | – | –
CCC12CCCCN1c1nc(-n3ccnc3-c3cccc(F)c3F)ncc1N(C)C2=O (racemic) [Example 248, (+/−) 2-(2-(2,3-difluorophenyl)-1H-imidazol-1-yl)-6a-ethyl-5-methyl-7,8,9,10-tetrahydro-5H-pyrido[2,1-h]pteridin-6(6aH)-one] | 10 to 50 | – | 1 to 10 | < 1 | – | – | –
CCC12CCCCN1c1nc(-n3ccnc3-c3cc(F)c(F)c(F)c3)ncc1N(C)C2=O (racemic) [Example 256, (+/−) 6a-ethyl-5-methyl-2-(2-(3,4,5-trifluorophenyl)-1H-imidazol-1-yl)-7,8,9,10-tetrahydro-5H-pyrido[2,1-h]pteridin-6(6aH)-one] | > 50 | – | > 50 | < 1 | – | – | –
CCC12CCCCN1c1nc(-n3ccnc3-c3ccc(F)cc3F)ncc1N(C)C2=O (racemic) [Example 257, (+/−) 2-(2-(2,4-difluorophenyl)-1H-imidazol-1-yl)-6a-ethyl-5-methyl-7,8,9,10-tetrahydro-5H-pyrido[2,1-h]pteridin-6(6aH)-one] | 10 to 50 | – | 10 to 50 | < 1 | – | – | –
CCC12CCCCN1c1nc(-n3ccnc3)ncc1N(C)C2=O (racemic) [Example 283, (+/−) 6a-ethyl-2-(1H-imidazol-1-yl)-5-methyl-7,8,9,10-tetrahydro-5H-pyrido[2,1-h]pteridin-6(6aH)-one] | > 50 | – | > 50 | 10 to 50 | – | – | –
CCC1C(=O)N(C)c2cnc(-c3cnsc3-c3ccc(F)cc3)nc2N1c1cccc(C#N)c1 (racemic) [Example 401, 3-(7-ethyl-2-(5-(4-fluorophenyl)isothiazol-4-yl)-5-methyl-6-oxo-6,7-dihydropteridin-8(5H)-yl)benzonitrile] | – | – | – | – | 1 to 10 | < 1 | 1 to 10
CC[C@@H]1C(=O)N(C)c2cnc(-c3ccnc(NC)c3)nc2N1C1CCCC1 [Example 20, (R)-8-cyclopentyl-7-ethyl-5-methyl-2-(2-(methylamino)pyridin-4-yl)-7,8-dihydropteridin-6(5H)-one] | 10 to 50 | – | < 1 | < 1 | – | – | –
CC[C@@H]1C(=O)N(C)c2cnc(-c3ccnc(N(C)C)c3)nc2N1C1CCCC1 [Example 21, (R)-8-cyclopentyl-2-(2-(dimethylamino)pyridin-4-yl)-7-ethyl-5-methyl-7,8-dihydropteridin-6(5H)-one] | 10 to 50 | – | < 1 | < 1 | – | – | –
CC[C@@H]1C(=O)N(C)c2cnc(-c3ccncc3)nc2N1C(C)C [Example 23, (R)-7-ethyl-8-isopropyl-5-methyl-2-(pyridin-4-yl)-7,8-dihydropteridin-6(5H)-one] | > 50 | – | 1 to 10 | < 1 | – | – | –
CC[C@@H]1C(=O)N(C)c2cnc(-n3ccnc3C)nc2N1C1CCCC1 [Example 27, (R)-8-cyclopentyl-7-ethyl-5-methyl-2-(2-methyl-1H-imidazol-1-yl)-7,8-dihydropteridin-6(5H)-one] | > 50 | – | 1 to 10 | < 1 | – | – | –
CC[C@@H]1C(=O)Nc2cnc(-n3cccn3)nc2N1C1CCCC1 [Example 29, (R)-8-cyclopentyl-7-ethyl-2-(1H-pyrazol-1-yl)-7,8-dihydropteridin-6(5H)-one] | > 50 | – | > 50 | > 50 | – | – | –
CC[C@@H]1C(=O)N(C)c2cnc(-c3cn[nH]c3)nc2N1C(C)C [Example 31, (R)-7-ethyl-8-isopropyl-5-methyl-2-(1H-pyrazol-4-yl)-7,8-dihydropteridin-6(5H)-one] | > 50 | – | 1 to 10 | < 1 | – | – | –
CC[C@@H]1C(=O)N(C)c2cnc(-c3cnc4[nH]ccc4c3)nc2N1C1CCCC1 [Example 32, (R)-8-cyclopentyl-7-ethyl-5-methyl-2-(1H-pyrrolo[2,3-b]pyridin-5-yl)-7,8-dihydropteridin-6(5H)-one] | 1 to 10 | – | < 1 | < 1 | – | – | –
CN1C(=O)[C@H]2CCCN2c2nc(-n3ccnc3)ncc21 [Example 33, (R)-2-(1H-imidazol-1-yl)-5-methyl-6a,7,8,9-tetrahydropyrrolo[2,1-h]pteridin-6(5H)-one] | > 50 | – | > 50 | 10 to 50 | – | – | –
CN1C(=O)[C@H]2CCCN2c2nc(-c3ccncc3)ncc21 [Example 34, (R)-5-methyl-2-(pyridin-4-yl)-6a,7,8,9-tetrahydropyrrolo[2,1-h]pteridin-6(5H)-one] | > 50 | – | > 50 | > 50 | – | – | –
CC[C@@H]1C(=O)N(C)c2cnc(-n3cnc(-c4ccccc4)c3)nc2N1C1CCCC1 [Example 36, (R)-8-cyclopentyl-7-ethyl-5-methyl-2-(4-phenyl-1H-imidazol-1-yl)-7,8-dihydropteridin-6(5H)-one] | 10 to 50 | – | < 1 | < 1 | – | – | –
CC[C@@H]1C(=O)N(C)c2cnc(-n3cccn3)nc2N1C1CCCC1 [Example 42, (R)-8-cyclopentyl-7-ethyl-5-methyl-2-(1H-pyrazol-1-yl)-7,8-dihydropteridin-6(5H)-one] | 10 to 50 | – | 1 to 10 | < 1 | – | – | –
CC[C@@H]1C(=O)N(C)c2cnc(-n3ccnc3)nc2N1C1CC(F)(F)C1 [Example 303, (R)-8-(3,3-difluorocyclobutyl)-7-ethyl-2-(1H-imidazol-1-yl)-5-methyl-7,8-dihydropteridin-6(5H)-one] | 10 to 50 | – | 10 to 50 | – | – | – | –
